In assay [1] the test system is peptide-pulsed T2 cells. Kind of assay: IFN-gamma ELISA assay of CTL lines and clones (HLA-A*0201). Format: cell-based, human. The settings on record: for IFN-gamma production of CTL clones (ELISA): CTL clones established by limiting dilution, target cells pulsed with peptide vs control; for IFN-gamma production of CTL lines (ELISA): CTL line stimulated with peptide, target cells pulsed with peptide vs without peptide pulse. The method, then:
CTLs were expanded in culture using the method similar to the one described by Riddell et al. (Walter E A et al., N Engl J Med 1995 Oct. 19, 333(16): 1038-44; Riddell S R et al., Nat Med 1996 February, 2(2): 216-23). A total of 5×10^4 CTLs were suspended in 25 ml of AIM-V/5% AS medium with 2 kinds of human B-lymphoblastoid cell lines, inactivated by Mitomycin C, in the presence of 40 ng/ml of anti-CD3 monoclonal antibody (Pharmingen). One day after initiating the cultures, 120 IU/ml of IL-2 were added to the cultures. The cultures were fed with fresh AIM-V/5% AS medium containing 30 IU/ml of IL-2 on days 5, 8 and 11 (Tanaka H et al., Br J Cancer 2001 Jan. 5, 84(1): 94-9; Umano Y et al., Br J Cancer 2001 Apr. 20, 84(8): 1052-7; Uchida N et al., Clin Cancer Res 2004 Dec. 15, 10(24): 8577-86; Suda T et al., Cancer Sci 2006 May, 97(5): 411-9; Watanabe T et al., Cancer Sci 2005 August, 96(8): 498-506).
The dilutions were made to have 0.3, 1, and 3 CTLs/well in 96 round-bottomed micro titer plate (Nalge Nunc International). CTLs were cultured with 1×10^4 cells/well of 2 kinds of human B-lymphoblastoid cell lines, 30 ng/ml of anti-CD3 antibody, and 125 U/ml of IL-2 in a total of 150 micro-l/well of AIM-V Medium containing 5% AS. 50 micro-l/well of IL-2 were added to the medium 10 days later so to reach a final concentration of 125 U/ml IL-2. CTL activity was tested on the 14th day, and CTL clones were expanded using the same method as described above (Uchida N et al., Clin Cancer Res 2004 Dec. 15, 10(24): 8577-86; Suda T et al., Cancer Sci 2006 May, 97(5): 411-9; Watanabe T et al., Cancer Sci 2005 August, 96(8): 498-506).
(§1) Specifically, peptide-pulsed T2 (1×10^4/well) was prepared as stimulator cells. Cultured cells in 48 wells were used as responder cells. IFN-gamma ELISPOT assay and IFN-gamma ELISA assay were performed under manufacture procedure.
(In an ELISA, binding on a coated surface is turned into a signal by an enzyme label.)

Assay [2] has as its system peptide-pulsed T2 cells. Kind of assay: In vitro CTL induction, IFN-gamma ELISPOT assay (HLA-A*0201). Format: cell-based, human. The settings on record: for Peptide specific CTL activity, IFN-gamma production (ELISPOT): CTLs from HLA-A*0201 positive donor stimulated with peptide-pulsed DCs, against peptide-pulsed target cells vs control; for CTL inducibility / specific CTL activity of CTLs stimulated with the peptide (summary statement): HLA-A2 restricted peptides.
Description: Monocyte-derived dendritic cells (DCs) were used as antigen-presenting cells to induce cytotoxic T lymphocyte (CTL) responses against peptides presented on human leukocyte antigen (HLA). DCs were generated in vitro as described elsewhere (Nakahara S et al., Cancer Res 2003 Jul. 15, 63(14): 4112-8). Specifically, peripheral blood mononuclear cells isolated from a normal volunteer (HLA-A*0201 positive) by Ficoll-Plaque (Pharmacia) solution were separated by adherence to a plastic tissue culture dish (Becton Dickinson) so as to enrich them as the monocyte fraction. The monocyte-enriched population was cultured in the presence of 1,000 U/ml of granulocyte-macrophage colony-stimulating factor (R&D System) and 1,000 U/ml of interleukin (IL)-4 (R&D System) in AIM-V Medium (Invitrogen) containing 2% heat-inactivated autologous serum (AS). After 7 days of culture, the cytokine-induced DCs were pulsed with 20 micro-g/ml of each of the synthesized peptides in the presence of 3 micro-g/ml of beta 2-microglobulin for 3 hrs at 37 degrees C. in AIM-V Medium. The generated cells appeared to express DC-associated molecules, such as CD80, CD83, CD86 and HLA class II, on their cell surfaces (data not shown). These peptide-pulsed DCs were then inactivated by X-irradiation (20 Gy) and mixed at a 1:20 ratio with autologous CD8+ T cells, obtained by positive selection with CD8 Positive Isolation Kit (Dynal). These cultures were set up in 48-well plates (Corning); each well contained 1.5×10^4 peptide-pulsed DCs, 3×10^5 CD8+ T cells and 10 ng/ml of IL-7 (R&D System) in 0.5 ml of AIM-V/2% AS medium. Three days later, these cultures were supplemented with IL-2 (CHIRON) to a final concentration of 20 IU/ml. On days 7 and 14, the T cells were further stimulated with the autologous peptide-pulsed DCs. The DCs were prepared each time by the same way described above. CTLs were tested against peptide-pulsed T2 cells after the 3rd round of peptide stimulation on day 21 (Tanaka H et al., Br J Cancer 2001 Jan. 5, 84(1): 94-9; Umano Y et al., Br J Cancer 2001 Apr. 20, 84(8): 1052-7; Uchida N et al., Clin Cancer Res 2004 Dec. 15, 10(24): 8577-86; Suda T et al., Cancer Sci 2006 May, 97(5): 411-9; Watanabe T et al., Cancer Sci 2005 August, 96(8): 498-506).
as §1

As to TLKWLISPV [SEQ ID NO: 30], the “IFN-gamma production of CTL clones (ELISA)” value with peptide-pulsed T2 cells [1] (listed as HJURP-A02-9-406) was “potent IFN-gamma production”. Further, in the assay with peptide-pulsed T2 cells [1], the “IFN-gamma production of CTL lines (ELISA)” value was “potent IFN-gamma production”. For the same sequence, in the assay on peptide-pulsed T2 cells [2], the “Peptide specific CTL activity, IFN-gamma production (ELISPOT)” value (shortened to “Peptide specific CTL activity”) is reported as “potent IFN-gamma production”. In addition, in the assay with peptide-pulsed T2 cells [2] (listed as HJURP-A02-9-406), the “CTL inducibility / specific CTL activity of CTLs stimulated with the peptide (summary statement)” value (from here on “CTL inducibility / specific CTL activity”) is “significant and specific CTL activity”.
As to RTLKWLISPV [SEQ ID NO: 37], the “IFN-gamma production of CTL clones (ELISA)” value in the assay with peptide-pulsed T2 cells [1] (listed as HJURP-A02-10-405) is “potent IFN-gamma production”. The “IFN-gamma production of CTL lines (ELISA)” value in the assay on peptide-pulsed T2 cells [1] is listed as “potent IFN-gamma production”. The “Peptide specific CTL activity” value in the assay with peptide-pulsed T2 cells [2] is given as “potent IFN-gamma production”. For the same sequence, in the assay with peptide-pulsed T2 cells [2] (listed as HJURP-A02-10-405), the “CTL inducibility / specific CTL activity” value is “significant and specific CTL activity”.
For VAWALAPAV [SEQ ID NO: 31], the “IFN-gamma production of CTL clones (ELISA)” value in the assay with peptide-pulsed T2 cells [1] (listed as HJURP-A02-9-129) is given as “potent IFN-gamma production”. For the same sequence, the “IFN-gamma production of CTL lines (ELISA)” value in the assay with peptide-pulsed T2 cells [1] was “potent IFN-gamma production”. Moreover, the “Peptide specific CTL activity” value in the assay with peptide-pulsed T2 cells [2] is “potent IFN-gamma production”. Moreover, in the assay on peptide-pulsed T2 cells [2] (listed as HJURP-A02-9-129), the “CTL inducibility / specific CTL activity” value was “significant and specific CTL activity”.
For SLSEAFENL [SEQ ID NO: 26], the “IFN-gamma production of CTL lines (ELISA)” value with peptide-pulsed T2 cells [1] is on record as “potent IFN-gamma production”. In addition, in the assay with peptide-pulsed T2 cells [2], the “Peptide specific CTL activity” value was “potent IFN-gamma production”. Besides, in the assay on peptide-pulsed T2 cells [2] (listed as HJURP-A02-9-496), the “CTL inducibility / specific CTL activity” value was “significant and specific CTL activity”.
